Biological target: T1, Recombinant human cathepsin A (Homo sapiens, UniProt P10619)
T1 construct: Recombinant human cathepsin A (residues 29-480, with a C-terminal 10-His tag); 10-His (C); purchased R&D Systems 1049-SE
T1 sequence (P10619 29-326 limits assumed): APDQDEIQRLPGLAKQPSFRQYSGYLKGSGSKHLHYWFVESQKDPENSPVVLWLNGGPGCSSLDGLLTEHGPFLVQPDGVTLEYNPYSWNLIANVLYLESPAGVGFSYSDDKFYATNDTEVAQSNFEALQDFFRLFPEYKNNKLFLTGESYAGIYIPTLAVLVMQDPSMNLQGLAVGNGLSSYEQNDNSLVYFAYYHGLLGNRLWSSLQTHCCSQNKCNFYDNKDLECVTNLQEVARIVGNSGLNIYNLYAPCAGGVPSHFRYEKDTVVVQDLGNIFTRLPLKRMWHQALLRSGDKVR
T1 sequence (P10619 327-480 limits assumed): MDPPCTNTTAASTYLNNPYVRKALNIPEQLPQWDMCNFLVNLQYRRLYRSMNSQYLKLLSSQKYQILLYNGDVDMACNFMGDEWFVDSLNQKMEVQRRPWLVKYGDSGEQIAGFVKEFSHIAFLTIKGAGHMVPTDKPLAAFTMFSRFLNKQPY
Assay: Cathepsin A inhibitory activity
Type: biochemical
Settings: activated recombinant human cathepsin A 833 ng/ml, Bodipy FL-labeled bradykinin substrate 2 μM, pH 5.5, room temperature
Protocol: a) Cathepsin A Inhibitory Activity
Recombinant human cathepsin A (residues 29-480, with a C-terminal 10-His tag; R&D Systems, #1049-SE) was proteolytically activated with recombinant human cathepsin L (R&D Systems, #952-CY). Briefly, cathepsin A was incubated at 10 μg/ml with cathepsin L at 1 μg/ml in activation buffer (25 mM 2-(morpholin-4-yl)-ethanesulfonic acid (MES), pH 6.0, containing 5 mM dithiothreitol (DTT)) for 15 min at 37° C. Cathepsin L activity was then stopped by the addition of the cysteine protease inhibitor E-64 (N-(trans-epoxysuccinyl)-L-leucine-4-guanidinobutylamide; Sigma-Aldrich, # E3132; dissolved in activation buffer/DMSO) to a final concentration of 10 μM.
The activated cathepsin A was diluted in assay buffer (25 mM MES, pH 5.5, containing 5 mM DTT) and mixed with the test compound (dissolved in assay buffer containing (v/v) 3% DMSO) or, in the control experiments, with the vehicle in a multiple assay plate. After incubation for 15 min at room temperature, as substrate then bradykinin carrying an N-terminal ®Bodipy FL (4,4-difluoro-5,7-dimethyl-4-bora-3a,4a-diaza-s-indacene-3-propionyl) label (JPT Peptide Technologies GmbH; dissolved in assay buffer) was added to the mixture. The final concentration of cathepsin A was 833 ng/ml and the final concentration of labeled bradykinin 2 μM. After incubation for 15 min at room temperature the reaction was stopped by the addition of stop buffer (130 mM 2-(4-(2-hydroxy-ethyl)-piperazin-1-yl)-ethanesulfonic acid, pH 7.4, containing (v/v) 0.013% ®Triton X-100, 0.13% Coating Reagent 3 (Caliper Life Sciences), 6.5% DMSO and 20 μM ebelactone B (Sigma, # E0886)).
Uncleaved substrate and product were then separated by a microfluidic capillary electrophoresis on a LabChip® 3000 Drug Discovery System (12-Sipper-Chip; Caliper Life Sciences) and quantified by determination of the respective peak areas. Substrate turnover was calculated by dividing product peak area by the sum of substrate and product peak areas, and the enzyme activity and the inhibitory effect of the test compound thus quantified. From the percentage of inhibition of cathepsin A activity observed with the test compound at several concentrations, the inhibitory concentration IC50, i.e. the concentration which effects 50% inhibition of enzyme activity was, calculated.

Row | IC50 | Structure (SMILES)
1 | 1710 nM | O=C(O)C[C@@H](Cc1ccccc1)NC(=O)c1nc(-c2ccccc2)cs1 [Example 1, (R)-4-Phenyl-3-[(4-phenyl-thiazole-2-carbonyl)-amino]-butyric acid]
2 | > 10000 nM | O=C(O)CC(NC(=O)c1csc(-c2ccccc2)n1)c1ccc(-c2ccc(F)cc2)cc1 (centres unmarked) [Example 2, 3-(4′-Fluoro-biphenyl-4-yl)-3-[(2-phenyl-thiazole-4-carbonyl)-amino]-propionic acid]
3 | 315 nM | Cc1cccc([C@H](CC(=O)O)NC(=O)c2nc(-c3ccccc3)cs2)c1 [Example 3, (S)-3-[(4-Phenyl-thiazole-2-carbonyl)-amino]-3-m-tolyl-propionic acid]
4 | > 10000 nM | C[C@@](CC(=O)O)(NC(=O)c1nc(-c2ccccc2)cs1)c1ccccc1 [Example 4, (S)-3-Phenyl-3-[(4-phenyl-thiazole-2-carbonyl)-amino]-butyric acid]
5 | 368 nM | COc1ccc(-c2nc(C(=O)N[C@@H](CC(=O)O)c3ccccc3C)cs2)cc1 [Example 5, (S)-3-{[2-(4-Methoxy-phenyl)-thiazole-4-carbonyl]-amino}-3-o-tolyl-propionic acid]
6 | > 10000 nM | Cc1cc(C)n(-c2nc(C(=O)N[C@@H](CC(=O)O)c3ccccc3C)cs2)n1 [Example 6, (S)-3-{[2-(3,5-Dimethyl-pyrazol-1-yl)-thiazole-4-carbonyl]-amino}-3-o-tolyl-propionic acid]
7 | 805 nM | Cc1ccccc1[C@H](CC(=O)O)NC(=O)c1csc(-c2ccncc2)n1 [Example 7, (S)-3-[(2-Pyridin-4-yl-thiazole-4-carbonyl)-amino]-3-o-tolyl-propionic acid]
8 | 2630 nM | Cc1ccccc1[C@H](CC(=O)O)NC(=O)c1csc(-c2cnccn2)n1 [Example 8, (S)-3-[(2-Pyrazin-2-yl-thiazole-4-carbonyl)-amino]-3-o-tolyl-propionic acid]
9 | 3590 nM | Cc1cc(C(F)(F)F)n(-c2nc(C(=O)N[C@@H](CC(=O)O)c3ccccc3C)cs2)n1 [Example 9, (S)-3-{[2-(3-Methyl-5-trifluoromethyl-pyrazol-1-yl)-thiazole-4-carbonyl]-amino}-3-o-tolyl-propionic acid]
10 | 187 nM | Cc1ccc(-c2nc(C(=O)N[C@@H](CC(=O)O)c3ccccc3C)cs2)cc1 [Example 10, (S)-3-o-Tolyl-3-[(2-p-tolyl-thiazole-4-carbonyl)-amino]-propionic acid]
11 | 404 nM | Cc1ccc([C@H](CC(=O)O)NC(=O)c2nc(-c3ccccc3)cs2)cc1 [Example 11, (S)-3-[(4-Phenyl-thiazole-2-carbonyl)-amino]-3-p-tolyl-propionic acid]
12 | 85 nM | Cc1ccccc1-c1nc(C(=O)N[C@@H](CC(=O)O)c2cccc(Cl)c2Cl)cs1 [Example 12, (S)-3-(2,3-Dichloro-phenyl)-3-[(2-o-tolyl-thiazole-4-carbonyl)-amino]-propionic acid]
13 | 176 nM | O=C(O)C[C@H](NC(=O)c1csc(-c2ccccc2)n1)c1cccc(Cl)c1Cl [Example 13, (S)-3-(2,3-Dichloro-phenyl)-3-[(2-phenyl-thiazole-4-carbonyl)-amino]-propionic acid]
14 | 159 nM | O=C(O)C[C@H](NC(=O)c1csc(-c2cccc(Cl)c2Cl)n1)c1cccc(Cl)c1Cl [Example 14, (S)-3-(2,3-Dichloro-phenyl)-3-{[2-(2,3-dichloro-phenyl)-thiazole-4-carbonyl]-amino}-propionic acid]
15 | 209 nM | O=C(O)C[C@H](NC(=O)c1csc(-c2ccccc2F)n1)c1cccc(Cl)c1Cl [Example 15, (S)-3-(2,3-Dichloro-phenyl)-3-{[2-(2-fluoro-phenyl)-thiazole-4-carbonyl]-amino}-propionic acid]
16 | 3020 nM | O=C(O)C[C@H](NC(=O)c1csc(-c2ccc(C(F)(F)F)cc2)n1)c1cccc(Cl)c1Cl [Example 16, (S)-3-(2,3-Dichloro-phenyl)-3-{[2-(4-trifluoromethyl-phenyl)-thiazole-4-carbonyl]-amino}-propionic acid]
17 | 242 nM | COc1cccc([C@H](CC(=O)O)NC(=O)c2csc(-c3ccccc3C)n2)c1OC [Example 17, (S)-3-(2,3-Dimethoxy-phenyl)-3-[(2-o-tolyl-thiazole-4-carbonyl)-amino]-propionic acid]
18 | 498 nM | COc1cccc([C@H](CC(=O)O)NC(=O)c2csc(-c3ccccc3)n2)c1OC [Example 18, (S)-3-(2,3-Dimethoxy-phenyl)-3-[(2-phenyl-thiazole-4-carbonyl)-amino]-propionic acid]
19 | 875 nM | COc1cccc([C@H](CC(=O)O)NC(=O)c2csc(-c3ccccc3F)n2)c1OC [Example 19, (S)-3-(2,3-Dimethoxy-phenyl)-3-{[2-(2-fluoro-phenyl)-thiazole-4-carbonyl]-amino}-propionic acid]
20 | 6340 nM | COc1cccc([C@H](CC(=O)O)NC(=O)c2csc(-c3ccc(C(F)(F)F)cc3)n2)c1OC [Example 20, (S)-3-(2,3-Dimethoxy-phenyl)-3-{[2-(4-trifluoromethyl-phenyl)-thiazole-4-carbonyl]-amino}-propionic acid]
21 | 886 nM | Cc1ccccc1-c1nc(C(=O)N[C@@H](CC(=O)O)c2ccc(Cl)cc2Cl)cs1 [Example 21, (S)-3-(2,4-Dichloro-phenyl)-3-[(2-o-tolyl-thiazole-4-carbonyl)-amino]-propionic acid]
22 | 544 nM | O=C(O)C[C@H](NC(=O)c1csc(-c2ccccc2)n1)c1ccc(Cl)cc1Cl [Example 22, (S)-3-(2,4-Dichloro-phenyl)-3-[(2-phenyl-thiazole-4-carbonyl)-amino]-propionic acid]
23 | 555 nM | O=C(O)C[C@H](NC(=O)c1csc(-c2cccc(Cl)c2Cl)n1)c1ccc(Cl)cc1Cl [Example 23, (S)-3-(2,4-Dichloro-phenyl)-3-{[2-(2,3-dichloro-phenyl)-thiazole-4-carbonyl]-amino}-propionic acid]
24 | 1070 nM | O=C(O)C[C@H](NC(=O)c1csc(-c2ccccc2F)n1)c1ccc(Cl)cc1Cl [Example 24, (S)-3-(2,4-Dichloro-phenyl)-3-{[2-(2-fluoro-phenyl)-thiazole-4-carbonyl]-amino}-propionic acid]
25 | 6370 nM | O=C(O)C[C@H](NC(=O)c1csc(-c2ccc(C(F)(F)F)cc2)n1)c1ccc(Cl)cc1Cl [Example 25, (S)-3-(2,4-Dichloro-phenyl)-3-{[2-(4-trifluoromethyl-phenyl)-thiazole-4-carbonyl]-amino}-propionic acid]
26 | 149 nM | Cc1ccccc1-c1nc(C(=O)N[C@@H](CC(=O)O)c2ccccc2Cl)cs1 [Example 26, (S)-3-(2-Chloro-phenyl)-3-[(2-o-tolyl-thiazole-4-carbonyl)-amino]-propionic acid]
27 | 217 nM | O=C(O)C[C@H](NC(=O)c1csc(-c2ccccc2)n1)c1ccccc1Cl [Example 27, (S)-3-(2-Chloro-phenyl)-3-[(2-phenyl-thiazole-4-carbonyl)-amino]-propionic acid]
28 | 282 nM | O=C(O)C[C@H](NC(=O)c1csc(-c2cccc(Cl)c2Cl)n1)c1ccccc1Cl [Example 28, (S)-3-(2-Chloro-phenyl)-3-{[2-(2,3-dichloro-phenyl)-thiazole-4-carbonyl]-amino}-propionic acid]
29 | 100 nM | O=C(O)C[C@H](NC(=O)c1csc(-c2ccccc2Cl)n1)c1ccccc1Cl [Example 29, (S)-3-(2-Chloro-phenyl)-3-{[2-(2-chloro-phenyl)-thiazole-4-carbonyl]-amino}-propionic acid]

— US9174952B2, “Substituted 3-thiazoloamino-propionic acid derivatives and their use as pharmaceuticals” (SANOFI, priority 2011, dated 2015)
